# Organism: Rattus norvegicus
# Assay: DrugMatrix - Regimen: Daily Repeat
# Format: toxicity, organism-based, Sprague-Dawley
# Set-up: regimen Daily Repeat, gender Male, age 6-8 weeks
# Conditions: in vivo, po, route oral GAVAGE, […]; for ABSOLUTE BASOPHIL / ABSOLUTE EOSINOPHIL / ABSOLUTE LYMPHOCYTE / ABSOLUTE MONOCYTE / ABSOLUTE SEGMENTED NEUTROPHIL / BASOPHIL / EOSINOPHIL / ERYTHROCYTE COUNT / HEMATOCRIT / HEMOGLOBIN / LEUKOCYTE COUNT / LYMPHOCYTE / MEAN CORPUSCULAR HEMOGLOBIN / MEAN CORPUSCULAR HEMOGLOBIN CONCENTRATION / MEAN CORPUSCULAR VOLUME / MONOCYTE / NEUTROPHIL / NUCLEATED RED BLOOD CELLS / PLATELET COUNT: tissue Blood; for ALANINE AMINOTRANSFERASE / ALBUMIN / ALKALINE PHOSPHATASE / ASPARTATE AMINOTRANSFERASE / BLOOD UREA NITROGEN / CARBON DIOXIDE / CHLORIDE / CHOLESTEROL / CREATINE PHOSPHOKINASE / CREATININE / GLUCOSE / LACTATE DEHYDROGENASE / LIPASE / PHOSPHORUS / POTASSIUM / SODIUM / TOTAL BILIRUBIN / TOTAL PROTEIN / URIC ACID: tissue Plasma
# [1] = 300 mg/kg, 120 h, dose level High, time 5 day
# [2] = 72 h, dose 2.5 mg/Kg, dose level Low, time 3 day
# [3] = 120 h, dose 2.5 mg/Kg, dose level Low, time 5 day
smiles,measurement,setting,value
CC(C)c1c(C(=O)Nc2ccccc2)c(-c2ccccc2)c(-c2ccc(F)cc2)n1CC[C@@H](O)C[C@@H](O)CC(=O)O [ATORVASTATIN],ABSOLUTE BASOPHIL,[1],0 CELLS/uL
same,ABSOLUTE EOSINOPHIL,[1],0 CELLS/uL
same,ABSOLUTE LYMPHOCYTE,[1],8045.67 CELLS/uL
same,ABSOLUTE MONOCYTE,[1],74 CELLS/uL
same,ABSOLUTE SEGMENTED NEUTROPHIL,[1],647 CELLS/uL
same,BASOPHIL,[1],0%
same,EOSINOPHIL,[1],0%
same,ERYTHROCYTE COUNT,[1],6.15 x10E6/uL
same,HEMATOCRIT,[1],38.73%
same,HEMOGLOBIN,[1],15.2 G/DL
same,LEUKOCYTE COUNT,[1],8.77 x10E3/uL
same,LYMPHOCYTE,[1],92.33%
same,MEAN CORPUSCULAR HEMOGLOBIN,[1],24.73 pg
same,MEAN CORPUSCULAR HEMOGLOBIN CONCENTRATION,[1],39.27 G/DL
same,MEAN CORPUSCULAR VOLUME,[1],63.03 fL
same,MONOCYTE,[1],0.67%
same,NEUTROPHIL,[1],7%
same,NUCLEATED RED BLOOD CELLS,[1],0 /100WBC
same,PLATELET COUNT,[1],1244.33 x10E3/uL
same,ALANINE AMINOTRANSFERASE,[1],175.67 u/L
same,ALBUMIN,[1],4.63 G/DL
same,ALKALINE PHOSPHATASE,[1],577.33 u/L
same,ASPARTATE AMINOTRANSFERASE,[1],151.33 u/L
same,BLOOD UREA NITROGEN,[1],10.67 mg/dL
same,CARBON DIOXIDE,[1],24.67 mmol/L
same,CHLORIDE,[1],101.67 MEQ/L
same,CHOLESTEROL,[1],52.67 mg/dL
same,CREATINE PHOSPHOKINASE,[1],399.67 u/L
same,CREATININE,[1],0.22 mg/dL
same,GLUCOSE,[1],152.67 mg/dL
same,LACTATE DEHYDROGENASE,[1],140.33 u/L
same,LIPASE,[1],60.67 u/L
same,PHOSPHORUS,[1],9.5 mg/dL
same,POTASSIUM,[1],5.73 MEQ/L
same,SODIUM,[1],145.97 MEQ/L
same,TOTAL BILIRUBIN,[1],0.37 mg/dL
same,TOTAL PROTEIN,[1],6.07 G/DL
same,URIC ACID,[1],0.9 mg/dL
same,ABSOLUTE BASOPHIL,[2],0 CELLS/uL
same,ABSOLUTE EOSINOPHIL,[2],0 CELLS/uL
same,ABSOLUTE LYMPHOCYTE,[2],8659.67 CELLS/uL
same,ABSOLUTE MONOCYTE,[2],90 CELLS/uL
same,ABSOLUTE SEGMENTED NEUTROPHIL,[2],583.67 CELLS/uL
same,BASOPHIL,[2],0%
same,EOSINOPHIL,[2],0%
same,ERYTHROCYTE COUNT,[2],5.09 x10E6/uL
same,HEMATOCRIT,[2],32.3%
same,HEMOGLOBIN,[2],12.6 G/DL
same,LEUKOCYTE COUNT,[2],9.33 x10E3/uL
same,LYMPHOCYTE,[2],92.67%
same,MEAN CORPUSCULAR HEMOGLOBIN,[2],24.77 pg
same,MEAN CORPUSCULAR HEMOGLOBIN CONCENTRATION,[2],39.03 G/DL
same,MEAN CORPUSCULAR VOLUME,[2],63.43 fL
same,MONOCYTE,[2],1%
same,NEUTROPHIL,[2],6.33%
same,NUCLEATED RED BLOOD CELLS,[2],0 /100WBC
same,PLATELET COUNT,[2],1132.33 x10E3/uL
same,ALANINE AMINOTRANSFERASE,[2],62 u/L
same,ALBUMIN,[2],4.07 G/DL
same,ALKALINE PHOSPHATASE,[2],560.67 u/L
same,ASPARTATE AMINOTRANSFERASE,[2],82.67 u/L
same,BLOOD UREA NITROGEN,[2],12.33 mg/dL
same,CARBON DIOXIDE,[2],26 mmol/L
same,CHLORIDE,[2],112 MEQ/L
same,CHOLESTEROL,[2],33.67 mg/dL
same,CREATINE PHOSPHOKINASE,[2],218.33 u/L
same,CREATININE,[2],0.14 mg/dL
same,GLUCOSE,[2],166.67 mg/dL
same,LACTATE DEHYDROGENASE,[2],156.33 u/L
same,LIPASE,[2],9.33 u/L
same,PHOSPHORUS,[2],9.23 mg/dL
same,POTASSIUM,[2],5.66 MEQ/L
same,SODIUM,[2],156.57 MEQ/L
same,TOTAL BILIRUBIN,[2],0.17 mg/dL
same,TOTAL PROTEIN,[2],5.77 G/DL
same,URIC ACID,[2],0.9 mg/dL
same,ABSOLUTE BASOPHIL,[3],0 CELLS/uL
same,ABSOLUTE EOSINOPHIL,[3],60.67 CELLS/uL
same,ABSOLUTE LYMPHOCYTE,[3],7091.67 CELLS/uL
same,ABSOLUTE MONOCYTE,[3],0 CELLS/uL
same,ABSOLUTE SEGMENTED NEUTROPHIL,[3],581 CELLS/uL
same,BASOPHIL,[3],0%
same,EOSINOPHIL,[3],0.67%
same,ERYTHROCYTE COUNT,[3],5.48 x10E6/uL
same,HEMATOCRIT,[3],34.67%
same,HEMOGLOBIN,[3],13.4 G/DL
same,LEUKOCYTE COUNT,[3],7.73 x10E3/uL
same,LYMPHOCYTE,[3],91.67%
same,MEAN CORPUSCULAR HEMOGLOBIN,[3],24.53 pg
same,MEAN CORPUSCULAR HEMOGLOBIN CONCENTRATION,[3],38.7 G/DL
same,MEAN CORPUSCULAR VOLUME,[3],63.4 fL
same,MONOCYTE,[3],0%
same,NEUTROPHIL,[3],7.67%
same,NUCLEATED RED BLOOD CELLS,[3],0 /100WBC
same,PLATELET COUNT,[3],1069.33 x10E3/uL
same,ALANINE AMINOTRANSFERASE,[3],63.33 u/L
same,ALBUMIN,[3],3.97 G/DL
same,ALKALINE PHOSPHATASE,[3],478 u/L
same,ASPARTATE AMINOTRANSFERASE,[3],92 u/L
same,BLOOD UREA NITROGEN,[3],11.33 mg/dL
same,CARBON DIOXIDE,[3],29.67 mmol/L
same,CHLORIDE,[3],98.33 MEQ/L
same,CHOLESTEROL,[3],40.67 mg/dL
same,CREATINE PHOSPHOKINASE,[3],375.33 u/L
same,CREATININE,[3],0.14 mg/dL
same,GLUCOSE,[3],160 mg/dL
same,LACTATE DEHYDROGENASE,[3],97.33 u/L
same,LIPASE,[3],9 u/L
same,PHOSPHORUS,[3],11.03 mg/dL
same,POTASSIUM,[3],5.44 MEQ/L
same,SODIUM,[3],144.03 MEQ/L
same,TOTAL BILIRUBIN,[3],0.13 mg/dL
same,TOTAL PROTEIN,[3],6.13 G/DL
same,URIC ACID,[3],0.43 mg/dL

# Source: ChEMBL document CHEMBL3885881, “DrugMatrix”
